Data published in patent publication US12163156B2, “Cell induction method” (INSTITUTE OF ZOOLOGY, CHINESE ACADEMY OF SCIENCES, priority 2018, dated 2024).

Columns and labels:
ICR female mice = test: In vivo experiment: ventral fat content after injection into the ventral side of mice; set-up: species or system mouse; details: 0.5 mg/kg injected into the ventral side once a day; for ventral fat content: 19 days, drug stopped for 32 days, vs DMSO group
Experimental: In vivo experiment: the same batch of 6-8 week-old ICR female mice are selected and randomly divided into two groups, 5 in each group. As to one group, small molecule (−)-Blebbistatin or (S)-(−)-Blebbistatin O-Benzoate (0.5 mg/kg, dissolved in 10% DMSO+2% Tween 80+normal saline) is injected into the ventral side of the mice; as to the other group, the same amount of DMSO as the small molecule group is injected in the same way as the experimental group. The injection is performed once a day, 19 days after the injection, and the drug is stopped for 32 days. The mice are sacrificed by cervical dislocation, and the ventral fat content is observed.

[1] = test system: human embryonic hepatocytes; test: In vitro amplification of human embryonic hepatocytes; format: cell-based; details: for cells amplified (multiple): 12 days subculturing (3 generations in total)
Experimental: (1) Coating the plate. The cell culture plate is coated with rat tail tendon collagen (Thermo scientific, A1048301, 3 mg/mL) at a concentration of […]. Taking a 24-well plate as an example, the bottom area of each hole is 1.9 cm^2, and […] is needed per well (about 3.2 μl); 3.2 μl of rat tail tendon collagen is dissolved in 500 μl of 20 mM glacial acetic acid, adding to the well to incubate in cell culture incubator at 37° C. for 1 h, and after aspirating and abandoning the solution, washing with PBS for 3 times.
(2) Resuscitation of human embryonic hepatocytes. Human embryonic hepatocytes are taken out from liquid nitrogen tanks (freezing date: Jan. 15, 2014; freezing medium: cell banker 2; the number of frozen cells: 2×10^7/tube), quickly placing in a 37° C. water bath, immediately after thawing the cells are sucked into a 15 mL centrifuge tube containing 5 mL of hepatocyte medium (control group), then centrifuging at 50 g, 4° C. for 5 min. The supernatant is discarded, then the cells are resuspended in 500 μl of hepatocyte medium with the number of 1.16×10^6 cells, and the cell resuscitation rate is 5.8%.
(3) Seeding the human embryonic hepatocytes. […] After hepatocyte medium containing 10 μM small molecule (−)-Blebbistatin, and hepatocyte medium containing 20 μM small molecule (−)-Blebbistatin hepatocyte medium are respectively seeded 24 h, for each group the digested cells from 3 wells are counted to calculate the cell attachment rate. After seeding for 72 h, for each group 3 wells of cells are digested and counted. […] A portion of the cells per well (⅖ of the cells counted) are taken for RNA extraction to detect the expression of human hepatocyte-associated genes.
(4) The first passage of human embryonic hepatocytes. […] A portion of the cells per well (⅖ of the cells counted) are taken for RNA extraction to detect the expression of human hepatocyte-associated genes.
(5) The second passage of human embryonic hepatocytes. […] The medium is changed every 2 days, and after continuing to culture for 144 h (6 days), the cells are digested and counted. […]

adult hepatocytes = test: Small molecule amplification of adult hepatocytes; format: cell-based, human; details: for number of cells after 6 days of culturing: control group 1.59×10^4
Experimental: (1) The method for coating the plate is as described above.
(2) Resuscitation and culture of adult hepatocytes. Adult hepatocytes (M00995-P […] human, Bioreclamation IVT) are taken out from a liquid nitrogen tank, then quickly placing in a 37° C. water bath, after thawing the cells are added to 5 mL of 37° C. pre-heated hepatocyte inoculation medium (InVitroGRO CP Medium), after counting the cells are inoculated in a 24-well plate at the density of 9×10^4/well, 2-4 h after hepatocyte adherence, aspirating and abandoning the hepatocyte inoculation medium, and respectively adding hepatocyte culture control medium, 10 μm small molecule medium, and 20 μm small molecule medium. The media are changed every 2 days. The number of cells is estimated from the photograph on day 2. After 4 days, the cells of the 20 μm small molecule medium group are changed to culture in 10 μm small molecule medium. The cells are counted after co-culturing for 6 days. A portion of the cells are taken for RNA extraction to detect the expression of human hepatocyte-specific genes.
(3) Passage of adult hepatocytes. 4.7×10^4 of the hepatocytes cultured in the above-mentioned control group, and 8×10^4 of the hepatocytes cultured 10 μm small-molecule medium are respectively re-inoculated into the 24-well plates coated with rat tail tendon collagen, and the media are changed every two days. After 6 days, photos are taken to record cell growth.

[2] = test system: mouse adult primary hepatocytes; test: In vitro amplification of mouse adult primary hepatocytes (Alb-GFP)
From the text: Alb-Cre mice are introduced from BRL Medicine, Cre recombinase is only expressed in mature hepatocytes expressing albumin; Rosa26/mTmG mice are introduced from Charles River, and a red and green fluorescence reporter system is incorporated into the Rosa26 locus of this kind of mouse; normally a tomato red fluorescent protein is expressed in the cells, while in the case of Cre recombination it is changed to express a green fluorescent protein (GFP). Alb-Cre adult mice are hybridizedwith Rosa26/mTmG mice to obtain offspring Alb-Cre×Rosa26/mTmG mice, and mature hepatocytes of the offspring are labeled green, and other tissue cells present the red fluorescent.
Alb-Cre×Rosa26/mTmG adult mice are sacrificed by cervical dislocation, taking out the hepatic lobes, cutting into small pieces, blowing and washing repeatedly with 100 volumes of pre-cooled PBS to remove the blood cells until the washing solution is not red; adding 3-5 volumes of collagenase IV (ThermoFisher, 17104019, preheated at 37° C.) to digest in incubator at 37° C. for 30-40 min, and blowing 2-3 times during the digestion, then centrifuging and removing the supernatant. […] The mouse hepatocyte medium comprises: DMEM/F12 (gibco, 10565018), adding N2 additive (100×, Gibco, 17502048), B27 additive (50×, Gibco, 17504044), 5% bovine serum albumin (1000×, Sigma, A8022), β-mercaptoethanol (1000×, Gibco, 21985023), GlutaMAX (200×, Gibco, 35050-061), non-essential amino acids (100×, Gibco, 11140-050), 1 μg/mL insulin (Roche, 11376497001), hepatocyte growth factor (10 ng/mL, R&D, 294-HG-025), transforming growth factor β inhibitor A83-01 (5 μm, stemgent, 04-0014), glycogen synthase kinase 3β inhibitor Chir99021 (6 μM, stemgent, 04-0004-10), macrophage stimulating protein 1 and 2 inhibitor XMU-MP-1 (2-5 μM, MCE, HY-100526) fibroblast growth factor 4 (10 ng/mL, R&D, 5846-f4-025), double antibiotics.
Without addition of Myosin II inhibitor (−)-Blebbistatin or (S)-(−)-Blebbistatin O-Benzoate, an equal volume of DMSO is added as a control, and the cells are respectively subcultured 3 times (P3), 5 times (P5), and seven times (P7).

[3] = test system: Mouse embryonic fibroblasts; test: Transdifferentiation of mouse embryonic fibroblasts into adipocytes, oil red O staining; format: cell-based; details: 10 μM added to the original adipocyte induction medium (Myosin inhibitor + BMP4); P<0.001
Experimental: Taking a 12-well plate as an example (coming, 3335), for each well, preparing 20 μg/ml Matrigel solution (BD, 354277) with 1×DMEM and coating for 12 hours; then the coating solution is removed, washing with 1×PBS. Mouse embryonic fibroblasts (C57, prepared by E13.5) or adult foreskin fibroblasts (HFF20y, Beijing Stem Cell Bank) are uniformly seeded in each well, 1×10^4 cells per well; incubating in basic medium (high glucose DMEM (Gibco, C12430500BT), double antibiotics) added with 10% fetal bovine serum (Gibco, 16000-044) for 24 hours. The medium is removed, then washing with PBS. […] The identification of adipocytes is performed by oil red staining of cells, oil red O staining solution (cell-specific, Solarbio, […]) is used, and the details are as follows: removing the medium, adding ORO Fixative to fix for 10-15 min, removing the ORO Fixative, and placing in flowing air for 10-15 min. At this time, ORO Stain is prepared in a ratio of ORO Stain A:ORO Stain B=3:2, standing for 10 min after mixing, then adding to the well; the staining solution is removed after dip dyeing for 15 min, adding 60% isopropanol to rinse for 20-30 s, and washing with distilled water for 3 times, then taking photos under an optical microscope. The neutral fats are orange-red or orange-colored, and the phospholipids are pink.

CYP1A2 gene = CYP1A2 gene induction with omeprazole in small molecule-amplified adult hepatocytes; format: cell-based, human; details: 50 μm omeprazole in 10 μm small molecule medium, 48 hours, vs DMSO
Experimental: (4) 10CYP1A2 adult hepatocytes amplified in 10 μm small medium. 3×10^5 hepatocytes are induced and inoculated in a 24-well plate coated with rat tail tendon collagen, after culturing in a 10 μm small molecule medium for 24 h, then replacing the medium with a 10 μm small molecule medium with 50 μm omeprazole, the control group is a 10 μm small molecule medium containing DMSO, and 48 hours later the cells are collected to detect the expression of the CYP1A2 gene.

**Q.** `Cc1ccc2c(c1)C(=O)C1(O)CCN(c3ccccc3)C1=N2` (single isomer, unassigned; (-)) [(−)-Blebbistatin] was tested. Which “ventral fat content” value (ICR female mice) did it give?
**A.** significantly increase

**Q.** What about the “ventral fat content” value (ICR female mice; listed as Ble) of the same molecule?
**A.** significant increase

**Q.** And the “human hepatocyte-specific genes albumin and alpha-fetoprotein expression” value ([1]; 10 μM and 20 μM small molecule media, 12 days subculturing, real-time quantitative PCR)?
**A.** still expressed

**Q.** What about the “cells amplified (multiple)” value ([1]; 10 μM small molecule medium) of the same molecule?
**A.** about 22.1 times

**Q.** And the “cells amplified (multiple)” value ([1]; 20 μM small molecule medium)?
**A.** about 13.0 times

**Q.** And the “number of cells after 6 days of culturing” value (adult hepatocytes; 10 μm group)?
**A.** 6.47×10^4 (SD=1.24)

**Q.** And the “subculture of human hepatocytes” value (adult hepatocytes; 10 μm small molecule medium, control medium cannot)?
**A.** can make human hepatocytes subculture

**Q.** What about the “number of cells after 6 days of culturing” value (adult hepatocytes; # group: 20 μm for 4 days then 10 μm for 2 days) of the same molecule?
**A.** 9.47×10^4 (SD=0.98)

**Q.** And the “expression of human hepatocyte specific genes albumin, AFP, CYP1A2, CYP3A4” value (adult hepatocytes; adult hepatocytes amplified with small molecules)?
**A.** still express

**Q.** And the “expression of the proliferating cell nuclear antigen (PCNA) gene” value (adult hepatocytes; small molecule group vs control group)?
**A.** significantly higher

**Q.** And the “amplification effect on adult hepatocytes (cell number day 6 / day 2)” value (adult hepatocytes; small molecule groups vs control)?
**A.** significant amplification effect

**Q.** What about the “hepatocyte clusters with Alb expression” value ([2]; 5 μM in mouse hepatocyte medium, fibronectin-coated dish, one week) of the same molecule?
**A.** green hepatocyte clusters with Alb expression are observed

**Q.** And the subculturing in vitro ([2]; mouse hepatocytes in medium with Myosin inhibitor)?
**A.** at least 20 generations

**Q.** And the “long-term amplification of AlB-GFP-positive hepatocytes” value ([2]; vs DMSO control, subcultured P3, P5, P7)?
**A.** significantly promotes

**Q.** Which results are given for `Cc1ccc2c(c1)C(=O)[C@]1(OC(=O)c3ccccc3)CCN(c3ccccc3)C1=N2` [(S)-(−)-Blebbistatin O-Benzoate]?
**A.** ventral fat content increase (ICR female mice; without optimization): about 50%; passaged in vitro ([2]; treated mouse hepatocytes): more than 20 times

**Q.** Which adipocyte induction efficiency [3] does the source give for `Cc1cccc(-c2nn(C(=S)Nc3ccccc3)cc2-c2ccnc3ccccc23)n1` [A83-01] here?
**A.** up to 20%

**Q.** Which adipocyte induction efficiency [3] does the source give for `NC(=O)c1ccc(-c2nc(-c3ccc4c(c3)OCO4)c(-c3ccccn3)[nH]2)cc1` [SB431542] here?
**A.** 18%

**Q.** How did the “expression of CYP1A2 gene” value (CYP1A2 gene) turn out when `COc1ccc2[nH]c([S+]([O-])Cc3ncc(C)c(OC)c3C)nc2c1` (stereo not shown) [omeprazole] was run?
**A.** can be increased
